Assays:
HIV-13B in MT4 cells = assay: Anti-HIV activity (inhibition of cytopathic effect of HIV) in MT4 cells; type: cell-based; details: Human immunodeficiency virus 1, concentration giving 50% inhibition of cytopathic effect of HIV
Text: (§1) The IC50 is the concentration of compound that gives 50% inhibition of the cytopathic effect of HIV. The LC50 is the concentration of compound at which 50% of the cells remain viable.

[1] = Cytotoxicity in MT4 cells; type: cell-based; details: human, concentration at which 50% of the cells remain viable, read-out: LC50 (the source's name)
Text: as §1

HIV-1 protease = HIV-1 protease (Human immunodeficiency virus type 1 group M subtype B, UniProt P04585); assay: Fluorogenic assay for screening inhibitors of HIV protease; details: for inhibition at 0.0005 µM: pH 4.5, read-out: Percent Inhibition
Method: The inhibitory potency of the compounds of the invention can be determined by the following method.
A compound of the invention is dissolved in DMSO and a small aliquot further diluted with DMSO to 100 times the final concentration desired for testing. The reaction is carried out in a 6×50 mm tube in a total volume of 300 microliters. The final concentrations of the components in the reaction buffer are: 125 mM sodium acetate, 1M sodium chloride, 5 mM dithiothreitol, 0.5 mg/ml bovine serum albumin, 1.3 μM fluorogenic substrate, 2% (v/v) dimethylsulfoxide, pH 4.5. After addition of inhibitor, the reaction mixture is placed in the fluorometer cell holder and incubated at 30° C. for several minutes. The reaction is initiated by the addition of a small aliquot of cold HIV protease. The fluorescence intensity (excitation 340 nm, emmision 490 nM) is recorded as a function of time. The reaction rate is determined for the first six to eight minutes. The observed rate is directly proportional to the moles of substrate cleaved per unit time. The percent inhibition is 100×(1-(rate in presence of inhibitor)/(rate in absence of inhibitor)).

Compound	IC50 (HIV-13B in MT4 cells) [nM]	CC50 [1] [nM]	inhibition at 0.0005 µM (HIV-1 protease) [%]	IC50 (HIV-1 protease) [nM]
CC(C)c1nc(CN(C)C(=O)N[C@H](C(=O)NN(Cc2ccccc2)C[C@H](O)[C@H](Cc2ccccc2)NC(=O)OCc2ccno2)C(C)C)co1 [Example 13D, 5S-N-((5-Isoxazolyl)methoxy)carbonylamino-2-N-((N-methyl-N-((2-isopropyl-4-oxazolyl)methyl)amino)carbonyl)-L-valinylamino-4S, hydroxy-1,6-diphenyl-2-azahexane]	102 to 150	58000	71	
COc1ccc(CN(C[C@H](O)[C@H](Cc2ccccc2)NC(=O)[C@@H](NC(=O)OCc2ccccn2)C(C)C)NC(=O)OC(C)(C)C)cc1 [Example 15, 5S-N-((2-Pyridinyl)methoxycarbonyl)-L-valinylamino-2-N-(t-butyloxycarbonyl)amino-4S-hydroxy-1-p-methoxyphenyl-6-phenyl-2-azahexane]	440 to 600	> 100000	44	
COc1ccc(CN(C[C@H](O)[C@H](Cc2ccccc2)NC(=O)[C@@H](NC(=O)OCc2ccccn2)C(C)C)NC(=O)OCc2cccnc2)cc1 [Example 16, 5S-N-((2-Pyridinyl)methoxycarbonyl)-L-valinylamino-2-N-((3-pyridinyl)methoxycarbonyl)amino-4S-hydroxy-1-p-methoxyphenyl-6-phenyl-2-azahexane]	200 to 270	57000	50	0.5

From patent publication US5461067A, “Retroviral protease inhibiting compounds” (priority 1994, dated 1995)
